Key:
[1] = test system: reuptake of dopamine in synaptosomes of rat forebrain; test: inhibition of dopamine reuptake in synaptosomes of rat forebrain; assay type: biochemical; conditions: 3H-dopamine 1×10^-9 M, 10 min at 37° C., male Wistar rat forebrain synaptosomes; read-out: Dopamine reuptake inhibiting activity (IC50)
Method: Fresh whole forebrain (at 0°-4° C.) from male Wistar rats (150-200 g) is homogenized in a glass homogenizer with a teflon pestle in 20×volumes 0.32M sucrose. The homogenate is centrifuged at 1000×g (~2900 rpm) for 10 min. The pellet is discarded and the supernatant is used for uptake assays.
A Krebs Buffer (119 mM NaCl, 24 mM NaHCO3, 2.1 mM KCl, 1.2 mM KH2 PO4, 1.8 mM CaCl2, 2 mM MgSO4,7H2 O, 12 mM glucose) is equilibrated with an atmosphere of 96% O2 : 4% CO2 for at least 60 min at 37° C. To 5 ml Krebs-buffer 100 μl of the radioactivity is added (3H-dopamine 1×10^-9 M final concentration) and 100 μl test substance solution and 200 μl of tissue suspension. The samples are thoroughly mixed and incubated 10 min at 37° C. followed by 2 min at 0° C. After incubation the samples are poured directly onto Whatman GF/C glass fibre filters under suction and immediately washed with 2×5 ml ice-cold 0.9% saline (NaCl) buffer. To the filter is added 3 ml of scintillation fluid, and the amount of radioactivity on the filters is determined by conventional liquid scintillation counting.

[2] = test system: abnormal stereotyped behaviour; test: abnormal stereotyped behaviour; assay type: in vivo, rat; conditions: at every relevant dosing level tested
Source text: Backward locomotion may occasionally be observed.
+=only stereotyped sniffing
++=stereotyped sniffing and episodic licking
+++=Continuous licking and/or biting gnawing

Cc1ccc([C@H]2C[C@@H]3CC[C@H]([C@@H]2c2nc(-c4ccccc4)no2)N3C)cc1 [(1R,2R,3S)-2-(3-phenyl-1,2,4-oxadiazol-5-yl)-3-(4-methylphenyl)-tropane]
IC50 [1]: 960 nM

CN1[C@H]2CC[C@@H]1[C@H](c1nc(-c3ccccc3)no1)[C@@H](c1ccc(Cl)cc1)C2 [(1R,2R,3S)-2-(3-phenyl-1,2,4-oxadiazol-5-yl)-3-(4-chlorophenyl)-tropane]
IC50 [1]: 330 nM

COC(=O)[C@@H]1[C@@H](c2ccc(F)cc2)C[C@@H]2CC[C@H]1N2C [trans isomer of Win 35,428, (1R,2R,3S)-2-carbomethoxy-3-(4-fluorophenyl)tropane, reference compound]
side effects: abnormal stereotyped behaviour [2]: essentially or totally devoid of side effects

CN1[C@H]2CC[C@@H]1[C@H](c1nc(-c3ccccc3)no1)[C@@H](c1ccc3ccccc3c1)C2 [(1R,2R,3S)-2-(3-phenyl-1,2,4-oxadiazol-5-yl)-3-(2-naphthyl)-tropane]
IC50 [1]: 540 nM

Source: patent publication US5444070A, “Phenyl substituted heterocyclic compounds” (NeuroSearch A/S, priority 1992, dated 1995)
